Publication PMC4627230, “Identification of TAX2 peptide as a new unpredicted anti-cancer agent” (Oncotarget, 2015)
Entries after “also recorded” stand apart in the source; their conditions may differ.

Legend:
[1] = system: C57BL/6 mice; test: Tolerability in melanoma-bearing mice (μCT of healthy organs, dissection); assay type: in vivo, mouse; settings: 10 mg/kg i.p. days 3, 5, 7, dissections, data not shown
Method: For the subcutaneous melanoma tumor model, suspensions of B16F1 cells (2.5 × 10^5 cells in 100 μL RPMI-1640 medium) were subcutaneously injected into the left flank of different randomized series of syngeneic C57BL/6 mice (n = 8–10 per group), as previously described. Intraperitoneal administrations of peptide (10 mg/kg mouse weight) or controls (physiological serum 0.9% (w/v) NaCl or a scrambled peptide) were performed at days 3, 5 and 7. In human pancreatic carcinoma xenograft experiments, 3 × 10^6 MIA PaCa-2 cells/mouse were implanted subcutaneously into the left flank of BALB/C athymic nude mice, then TAX2 intraperitoneal treatments (10 mg/kg mouse weight) were performed 3 times a week during 4 weeks starting at day 10 after tumor cells inoculation. Tumor volume was determined according to v = 0.5 A × B^2, where A denotes the largest dimension of the tumor and B represents the smallest dimension. […]
Animals were anesthetized by isoflurane (Forene, Abbott France, Rungis, France) inhalation (3% for induction and 1–1.5% for maintenance) and then after placed in a carbon fibers bed. […] Analysis of reconstructed images and quantification of the vascular network were performed using Amira 5.4.3 software.

[2] = system: lung metastasis of invasive B16F10 melanoma cells; test: Experimental lung metastasis; assay type: in vivo; settings: data not shown
[3] = system: TSP-1 binding to LRP-1; test: Co-immunoprecipitation TSP-1 with LRP-1; assay type: cell-based, human; settings: HUVECs, 100 μM; total protein lysates
Method: Protein lysates prepared in ice-cold lysis buffer or conditioned media were subjected to immunoprecipitation assay using the Pierce Co-IP kit (Thermo Fisher Scientific) according to the manufacturer's protocol. 10 μg of antibody (anti CD47, anti-CD36, anti-FGF2, anti-VEGF, anti-β1 integrin and anti-LRP1 heavy chain) or non-specific IgGs were incubated with the delivered resin and covalently coupled. The antibody-coupled resin was incubated with whole HUVEC protein lysate overnight at 4°C under gentle agitation (no cross-linker was used to stabilize protein complexes before HUVEC lysis). Then the resin was washed and the protein complexes bound to the antibody were eluted. Immunoprecipitated protein complexes were solubilized under denaturing and reducing conditions, heated to 100°C for 5 min and analyzed by immunoblotting as described above. […]
receptors. HUVECs were treated with TAX2 (100 μM) or scrambled peptide (Ctrl, 100 μM). FGF-2 and VEGF were immunoprecipitated from conditioned media using anti-FGF-2 (clone C-18) and anti-VEGF (clone C-1), respectively. β1 integrin and LRP-1 were immunoprecipitated from total protein lysates using anti-β1 integrin (clone BV7) and anti-LRP-1 heavy chain (clone 8G1), respectively. […] Histogram represents the quantification of relative ligand-bound TSP-1 under TAX2 treatment as compared to control. […]

[4] = system: TSP-1 binding to CD36; test: Co-immunoprecipitation TSP-1:CD36 in HUVECs; assay type: cell-based, human; settings: 100 μM, 24 h
Method: Figure 3 Anti-angiogenic properties of TAX2 are mediated by TSP-1 binding to CD36 A. Expression of CD36 in HUVECs was assessed by immunoblotting (left panel) and immunofluorescence staining (right panel, red). Nuclei were counterstained with DAPI (blue). B. HUVECs were incubated with 100 μM cyclic TAX2 or in control conditions for 24 h. Then, CD36-containing complexes were co-immunoprecipitated from whole cell extracts (non-specific IgGs were used as a negative control for immunoprecipitation). Immunocomplexes were submitted to SDS-PAGE and immunoblotted (IB) by using specific antibodies for TSP-1 and CD36. The presence of TSP-1 in immunocomplexes was quantified by densitometric analysis relative to immunoprecipitated CD36. C. VEGFR2 phosphorylation induced by VEGF in the presence of TAX2. After overnight serum starvation, HUVECs were pre-treated with 100 μM TAX2 or control for 12 h, then incubated with 30 ng/mL VEGF for 5 min. […] Data are expressed as the mean ± SE (n = 3; *p < 0.05, ANOVA). […] Quantification of total tube-like network length was realized using ImageJ software E. Branching points F. and nodal structures G. were numbered using the S.CORE web-based system. Data are expressed as the mean ± SE (n = 3; *p < 0.05, ANOVA). […]

Sequence: CEVSQLLKGDAC (disulfide) [TAX2, CD47-derived cyclic disulfide dodecapeptide …]
- thrombosis, hemorrhage or embolism in melanoma-bearing mice [1]: neither μCT imaging of healthy organs nor mice dissections highlighted any sign of thrombosis, hemorrhage or embolism; also recorded: no signs of thrombosis, hemorrhage or embolism were observed in healthy organs
- lung metastasis formation [2]: did not increase metastasis formation
- TSP-1 binding to LRP-1 [3]: does not affect
- increase of TSP-1 co-immunoprecipitated with CD36 [4]: 3 fold
